# In patent US5362634A, “Process for producing A83543 compounds” (DowElanco, priority 1991, dated 1994):
# What was measured:
# adult stable fly = test: In vitro efficacy against adult stable fly; conditions: Stomoxys calcitrans
# From the text: (§1) Tables XIX-XXI summarize in vitro studies with A83543A and A83543D.
# [1] = tested on: neonate CBW (cotton bollworm) larvae; test: Topical test against neonate CBW larvae; assay type: in vivo, Heliothis zea; conditions: 24 h, 1 day
# Procedure: (§2) Each test compound was formulated by dissolving the compound in an acetone/alcohol (1:1) mixture containing 23 g of "Toximul R" (sulfonate/nonionic emulsifier blend) and 13 g of "Toximul S" (sulfonate/nonionic emulsifier blend) per liter. These mixtures were then diluted with water to give the indicated concentrations.
# (§3) Additional insects were evaluated using similar formulations and evaluation procedures, with the exceptions noted.
# (§4) After standard exposure periods, percent mortality was evaluated. The following abbreviations are used:
# ^b Mean of two replicates tested
# ^c Treated with 1 mL of formulated A83543A
# Nematospiroides dubius = test: Anthelmintic activity in mice experimentally infected with Nematospiroides dubius; assay type: in vivo; conditions: single oral gavage at 500 mg/kg
# [2] = tested on: neonate CBW (cotton bollworm) larvae; test: Percent control of neonate CBW larvae by A83543 components, topical pipet method; assay type: in vivo, Heliothis zea; conditions: topical, 24 h, read-out: Percent Control
# Procedure: as §2, §3, §4
# ^1 Treatments with the same letter in parentheses are similar at the
# ^2 Topical pipet method with 20 larve/replicate and 4 replicates; one
# day between treatment and observation.
# [3] = tested on: CRW (Southern corn rootworm); test: Greenhouse test against CRW; assay type: in vivo, Diabrotica undecimpunctata howardi
# Procedure: as §2, §3
# (§5) After standard exposure periods, percent mortality was evaluated.
# blow fly larvae (LBF) [4] = test: Guinea pig systemic test, blow fly larvae; assay type: in vivo
# Procedure: (§6) Adult guinea pigs are used in this test system. The compounds to be tested are dissolved in aqueous polyvinyl pyrrolidone or in polyethylene glycol 200, and an appropriate amount of the solution is administered either orally or by intraperitoneal injection.
# (§7) Blood is drawn from the guinea pigs at 30 minutes except as noted, and the samples of blood are centrifuged. Dental wicks are saturated with the blood serum, and then exposed in Petri dishes to adult stable flies; blow fly larvae are exposed in test tubes. After 24 and 48 hours, the insects are examined, and the number of dead are counted. The results of the tests are recorded as the percent of the insects which are killed.
# guinea pigs = test: Toxicity to the host animal, guinea pig systemic test; assay type: in vivo; parameters: key: N: none
# Procedure: as §6, §7
# blow fly larvae (LBF) [5] = test: In vitro efficacy, exposure of LBF to chemically added serum samples
# From the text: ^1 Percent insect mortality following 24 to 48 hrs. in vitro exposure
# to chemically added serum samples
# adult BW (boll weevil) = test: Topical test against adult BW; assay type: in vivo; conditions: Anthonomus grandis, 72 h, 3 days
# Procedure: as §2, §3, §4
# ^a One replicate; observed 3 days after treatment
# ^b Formulated A83543A (1 mL) poured over adult insects in a Petri
# [6] = tested on: SM (twospotted spider mite); test: Greenhouse test against SM; assay type: in vivo; conditions: Tetranychus urticae
# Procedure: as §2
# Two-spotted spider mites (Tetranychus urticae Koch) and cotton or melon aphids (Aphis gossypii Glover) were introduced on squash cotyledons and allowed to establish on both leaf surfaces. Other plants in the same treatment pot were left uninfested. The leaves were then sprayed with 5 mL of test solution using a DeVilbiss atomizing sprayer at 10 psi. Both surfaces of the leaves were covered until runoff and then allowed to dry for one hour. Two uninfested leaves were then excised and placed into a Petri dish containing Southern armyworm (Spodoptera eridania Cramer).
# as §5
# black blow fly larvae = test: In vitro efficacy against black blow fly larvae; conditions: Phormia regina
# From the text: as §1
# cabbage looper = test: Field trial, cabbage looper on sprouting broccoli; assay type: in vivo
# Procedure: A83543A was evaluated in field trials.
smiles,measurement,setting,value
CC[C@H]1CCC[C@H](O[C@H]2CC[C@H](N(C)C)[C@@H](C)O2)[C@@H](C)C(=O)C2=C[C@@H]3[C@@H](C=C[C@@H]4C[C@@H](O[C@@H]5O[C@@H](C)[C@H](OC)[C@@H](OC)[C@H]5OC)C[C@@H]34)[C@@H]2CC(=O)O1 [A83543A],mortality at 0.5 ppm,adult stable fly; 24 hour,0%
same,mortality at 0.5 ppm,adult stable fly; 48 hour,10%
same,mortality at 1 ppm,adult stable fly; 24 hour,10%
same,mortality at 1 ppm,adult stable fly; 48 hour,60%
same,mortality at 2 ppm,adult stable fly; 24 hour,70%
same,mortality at 2 ppm,adult stable fly; 48 hour,90%
same,mortality at 5 ppm,adult stable fly; 24 hour,80%
same,mortality at 5 ppm,adult stable fly; 48 hour,100%
same,mortality at 10 ppm,adult stable fly; 24 hour,100%
same,mortality at 10 ppm,adult stable fly; 48 hour,90%
same,mortality at 25 ppm,adult stable fly; 24 hour,100%
same,mortality at 25 ppm,adult stable fly; 48 hour,100%
same,mortality at 50 ppm,adult stable fly; 24 hour,100%
same,mortality at 50 ppm,adult stable fly; 48 hour,100%
same,mortality at 100 ppm,adult stable fly; 24 hour,100%
same,mortality at 100 ppm,adult stable fly; 48 hour,100%
same,inhibition at 0.5 ppm,"[1]; 0.50 ppm, second series",10%
same,inhibition at 1 ppm,"[1]; first series, mean of two replicates",20%
same,inhibition at 1 ppm,[1]; second series,40%
same,inhibition at 5 ppm,[1]; first series,100%
same,inhibition at 5 ppm,[1]; second series,80%
same,inhibition at 10 ppm,[1]; first series,100%
same,inhibition at 10 ppm,[1]; second series,100%
same,inhibition at 50 ppm,[1]; first series,100%
same,inhibition at 50 ppm,[1]; second series,100%
same,inhibition at 100 ppm,[1]; first series,100%
same,inhibition at 100 ppm,[1]; second series,70%
same,anthelmintic activity,Nematospiroides dubius,did not show anthelmintic activity
same,mortality at 0.5 ppm,[2],55%
same,mortality at 1 ppm,[2],100%
same,mortality at 5 ppm,[2],100%
same,mortality at 10 ppm,[2],100%
same,inhibition at 3 ppm,"[3]; 3 ppm, second series",0%
same,inhibition at 3.75 ppm,[3]; 3.75 ppm,0%
same,inhibition at 6 ppm,"[3]; 6 ppm, second series",30%
same,inhibition at 7.5 ppm,[3]; 7.5 ppm,10%
same,inhibition at 15 ppm,[3]; 15 ppm,50%
same,inhibition at 30 ppm,[3]; 30 ppm,100%
same,LBF activity (% mortality),"blow fly larvae (LBF) [4]; 10 mg/kg IP, 30 min",0%
same,% Activity LBF,"blow fly larvae (LBF) [4]; 10 mg/kg IP, bled 30 min",0%
same,% Activity LBF,"blow fly larvae (LBF) [4]; 10 mg/kg IP, bled 5 hr",0%
same,% Activity LBF,"blow fly larvae (LBF) [4]; 10 mg/kg IP, bled 24 hr",0%
same,LBF activity (% mortality),"blow fly larvae (LBF) [4]; 20 mg/kg IP, 30 min",0%
same,% Activity LBF,"blow fly larvae (LBF) [4]; 20 mg/kg IP, bled 30 min",0%
same,% Activity LBF,"blow fly larvae (LBF) [4]; 20 mg/kg IP, bled 5 hr",0%
same,% Activity LBF,"blow fly larvae (LBF) [4]; 20 mg/kg IP, bled 24 hr",0%
same,LBF activity (% mortality),blow fly larvae (LBF) [4]; 30 mg/kg IP,90%
same,% Activity LBF,"blow fly larvae (LBF) [4]; 30 mg/kg IP, bled 30 min",90%
same,% Activity LBF,"blow fly larvae (LBF) [4]; 30 mg/kg IP, bled 5 hr",50%
same,% Activity LBF,"blow fly larvae (LBF) [4]; 30 mg/kg IP, bled 24 hr",30%
same,LBF activity (% mortality),"blow fly larvae (LBF) [4]; 50 mg/kg IP, 30 min",100%
same,% Activity LBF,"blow fly larvae (LBF) [4]; 50 mg/kg IP, bled 30 min",100%
same,% Activity LBF,"blow fly larvae (LBF) [4]; 50 mg/kg IP, bled 5 hr",95%
same,% Activity LBF,"blow fly larvae (LBF) [4]; 50 mg/kg IP, bled 24 hr",25%
same,LBF activity (% mortality),"blow fly larvae (LBF) [4]; 50 mg/kg OR (oral), 30 min",100%
same,% Activity LBF,"blow fly larvae (LBF) [4]; 50 mg/kg oral, bled 5 hr",100%
same,% Activity LBF,"blow fly larvae (LBF) [4]; 50 mg/kg oral, bled 24 hr",0%
same,Tox,guinea pigs; 10 mg/kg IP,N
same,Tox,guinea pigs; 20 mg/kg IP,N
same,Tox,guinea pigs; 30 mg/kg IP,N
same,Tox,guinea pigs; 50 mg/kg IP,N
same,Tox,guinea pigs; 50 mg/kg OR (oral),N
same,Percent insect mortality,"blow fly larvae (LBF) [5]; 0.312 ppm, 24 hr",25%
same,Percent insect mortality,"blow fly larvae (LBF) [5]; 0.312 ppm, 48 hr",50%
same,Percent insect mortality,"blow fly larvae (LBF) [5]; 0.625 ppm, 24 hr",60%
same,Percent insect mortality,"blow fly larvae (LBF) [5]; 0.625 ppm, 48 hr",90%
same,Percent insect mortality,"blow fly larvae (LBF) [5]; 1.25 ppm, 24 hr",100%
same,Percent insect mortality,"blow fly larvae (LBF) [5]; 1.25 ppm, 48 hr",100%
same,Percent insect mortality,"blow fly larvae (LBF) [5]; 2.5 ppm, 24 hr",100%
same,Percent insect mortality,"blow fly larvae (LBF) [5]; 2.5 ppm, 48 hr",100%
same,Percent insect mortality,"blow fly larvae (LBF) [5]; 5 ppm, 24 hr",100%
same,Percent insect mortality,"blow fly larvae (LBF) [5]; 5 ppm, 48 hr",100%
same,Percent insect mortality,"blow fly larvae (LBF) [5]; 10 ppm, 24 hr",100%
same,Percent insect mortality,"blow fly larvae (LBF) [5]; 10 ppm, 48 hr",100%
same,inhibition at 1 ppm,adult BW (boll weevil); 1.00 ppm,0%
same,inhibition at 5 ppm,adult BW (boll weevil); 5.00 ppm,20%
same,inhibition at 10 ppm,adult BW (boll weevil); 10.00 ppm,20%
same,inhibition at 50 ppm,adult BW (boll weevil); 50.00 ppm,100%
same,inhibition at 100 ppm,adult BW (boll weevil); 100.0 ppm,100%
same,inhibition at 6.25 ppm,"[6]; bushbean, 6.25 ppm",0%
same,inhibition at 12.5 ppm,"[6]; bushbean, 12.5 ppm",10%
same,inhibition at 25 ppm,"[6]; bushbean, 25 ppm",30%
same,inhibition at 50 ppm,"[6]; bushbean, 50 ppm",80%
same,inhibition at 100 ppm,"[6]; bushbean, 100 ppm",100%
same,inhibition at 31.25 ppm,"[6]; squash, 31.25 ppm",0%
same,inhibition at 62.5 ppm,"[6]; squash, 62.5 ppm",20%
same,inhibition at 125 ppm,"[6]; squash, 125 ppm",40%
same,inhibition at 250 ppm,"[6]; squash, 250 ppm",70%
same,mortality at 0.25 ppm,black blow fly larvae; 0.25 ppm,25%
same,mortality at 0.5 ppm,black blow fly larvae; 0.5 ppm,60%
same,mortality at 1 ppm,black blow fly larvae; 1 ppm,95%
same,mortality at 2 ppm,black blow fly larvae; 2 ppm,100%
same,mortality at 5 ppm,black blow fly larvae; 5 ppm,100%
same,mortality at 10 ppm,black blow fly larvae; 10 ppm,100%
same,mortality at 25 ppm,black blow fly larvae; 25 ppm,100%
same,mortality at 50 ppm,black blow fly larvae; 50 ppm,100%
same,mortality at 100 ppm,black blow fly larvae; 100 ppm,100%
same,activity in field trials,cabbage looper,showed activity
